In patent US20260335294A1, “TREATING CONGENITAL DISORDERS OF GLYCOSYLATION” (Mayo Foundation for Medical Education and Research, priority 2022, published 2026):

Columns and labels:
PMM2-CDG patient (P5) = test: Fructose tolerance test, urine polyols; type: in vivo, human; conditions: P5, fasting, 1 g/kg oral fructose
Description: Fructose tolerance test was performed in P5 according to the standard clinical protocol at fasting state with 1 g/kg oral fructose, and the first voided urine was collected.

[1] = test system: patient and control fibroblasts; test: 13C6-fructose incubation of fibroblasts, polyol and hexose pools; type: cell-based, human; conditions: 0.15 mM 13C6-fructose, 5.5 mM glucose
Description: Next, the influence of dietary fructose on the urine polyol levels in PMM2-CDG was evaluated. Fructose has become one of the major sources of energy in the western diet and has been associated with numerous disorders such as diabetes, hypertension, obesity, etc. Peripheral fasting fructose levels range between 0.01-0.07 mM and can increase by 5-fold after consumption of a fructose rich meal. […] The possibility of fructose contributing to the polyols increase seen in PMM2-CDG was therefore tested. First, a fructose tolerance test in individuals with PMM2-CDG (P5) was performed. […] Then, to investigate the contribution of fructose in intracellular polyol accumulation, patient and control fibroblasts were incubated in the presence of 5.5 mM glucose and 0.15 mM (average blood fructose concentration upon fructose rich meal)^13C6-fructose and medium containing dialyzed FBS (FIG. 2A).

Row | Structure (SMILES) | fold increase of urine mannitol after fructose tolerance test (PMM2-CDG patient (P5)) [times] | fold increase of urine sorbitol after fructose tolerance test (PMM2-CDG patient (P5)) | Fractional Contribution (FC) in total hexose pool ([1]; PMM2-CDG and controls) [%] | hexose pool abundance ([1]; dialyzed FBS) | polyol pool abundance ([1]; dialyzed FBS)
1 | O=C(CO)[C@@H](O)[C@H](O)[C@H](O)CO [fructose] | 3 | approximately 7 times |  |  | 
2 | OCC1(O)OC[C@@H](O)[C@@H](O)[C@@H]1O (some centres unmarked) [^13C6-fructose] |  |  | 4 | increase | increase
